# Source: ChEMBL document CHEMBL5038625, “Application of the dual-tail approach for the design and synthesis of novel Thiopyrimidine-Benzenesulfonamide hybrids as selective carbonic anhydrase inhibitors” (Eur J Med Chem, 2022)
# What was measured:
# MDA-MB-231 [1] = test: Antiproliferative activity against human MDA-MB-231 cells assessed as reduction in cell viability incubated for 24 hrs by sulforhodamine B assay; type: functional, cell-based; conditions: MDA-MB-231, 24 h
# NCI-H226 = test: Antiproliferative activity against human NCI-H226 cells assessed as cell growth inhibition at 10 uM incubated for 24 hrs by sulforhodamine B assay; type: functional; conditions: read-out: GI
# NCI-H522 = test: Antiproliferative activity against human NCI-H522 cells assessed as cell growth inhibition at 10 uM incubated for 24 hrs by sulforhodamine B assay; type: functional; conditions: read-out: GI
# MDA-MB-468 = test: Antiproliferative activity against human MDA-MB-468 cells assessed as cell growth inhibition at 10 uM incubated for 24 hrs by sulforhodamine B assay; type: functional; conditions: read-out: GI
# 786-0 = test: Antiproliferative activity against human 786-0 cells assessed as cell growth inhibition at 10 uM incubated for 24 hrs by sulforhodamine B assay; type: functional; conditions: read-out: GI
# SK-OV-3 = test: Antiproliferative activity against human SK-OV-3 cells assessed as cell growth inhibition at 10 uM incubated for 24 hrs by sulforhodamine B assay; type: functional; conditions: read-out: GI
# T47D [2] = test: Antiproliferative activity against human T47D cells assessed as reduction in cell viability incubated for 24 hrs by sulforhodamine B assay; type: functional, cell-based
# CAKI-1 = test: Antiproliferative activity against human CAKI-1 cells assessed as cell growth inhibition at 10 uM incubated for 24 hrs by sulforhodamine B assay; type: functional; conditions: read-out: GI
# UO-31 = test: Antiproliferative activity against human UO-31 cells assessed as cell growth inhibition at 10 uM incubated for 24 hrs by sulforhodamine B assay; type: functional; conditions: read-out: GI
# MCF7 [3] = test: Antiproliferative activity against human MCF7 cells assessed as cell growth inhibition at 10 uM incubated for 24 hrs by sulforhodamine B assay; type: functional; conditions: read-out: GI
# Carbonic anhydrase 9 = Carbonic anhydrase 9 (Homo sapiens, UniProt Q16790); test: Inhibition of human CA9 preincubated for 15 mins by phenol red dye based stopped flow CO2 hydration assay
# HL-60 = test: Antiproliferative activity against human HL-60 cells assessed as cell growth inhibition at 10 uM incubated for 24 hrs by sulforhodamine B assay; type: functional; conditions: read-out: GI
# LOX IMVI = test: Antiproliferative activity against human LOX IMVI cells assessed as cell growth inhibition at 10 uM incubated for 24 hrs by sulforhodamine B assay; type: functional; conditions: read-out: GI
# UACC-62 = test: Antiproliferative activity against human UACC-62 cells assessed as cell growth inhibition at 10 uM incubated for 24 hrs by sulforhodamine B assay; type: functional; conditions: read-out: GI
# ACHN = test: Antiproliferative activity against human ACHN cells assessed as cell growth inhibition at 10 uM incubated for 24 hrs by sulforhodamine B assay; type: functional; conditions: read-out: GI
# RXF 393 = test: Antiproliferative activity against human RXF 393 cells assessed as cell growth inhibition at 10 uM incubated for 24 hrs by sulforhodamine B assay; type: functional; conditions: read-out: GI
# NCI-H23 = test: Antiproliferative activity against human NCI-H23 cells assessed as cell growth inhibition at 10 uM incubated for 24 hrs by sulforhodamine B assay; type: functional; conditions: read-out: GI
# MCF7 [4] = test: Antiproliferative activity against human MCF7 cells assessed as reduction in cell viability incubated for 24 hrs by sulforhodamine B assay; type: functional, cell-based; conditions: MCF7, 24 h
# MDA-MB-231 [5] = test: Antiproliferative activity against human MDA-MB-231 cells assessed as cell growth inhibition at 10 uM incubated for 24 hrs by sulforhodamine B assay; type: functional; conditions: read-out: GI
# MDA-MB-435 = test: Antiproliferative activity against human MDA-MB-435 cells assessed as cell growth inhibition at 10 uM incubated for 24 hrs by sulforhodamine B assay; type: functional; conditions: read-out: GI
# SNB-75 = test: Antiproliferative activity against human SNB-75 cells assessed as cell growth inhibition at 10 uM incubated for 24 hrs by sulforhodamine B assay; type: functional; conditions: read-out: GI
# Malme-3M = test: Antiproliferative activity against human Malme-3M cells assessed as cell growth inhibition at 10 uM incubated for 24 hrs by sulforhodamine B assay; type: functional; conditions: read-out: GI
# BT-549 = test: Antiproliferative activity against human BT-549 cells assessed as cell growth inhibition at 10 uM incubated for 24 hrs by sulforhodamine B assay; type: functional; conditions: read-out: GI
# DU-145 = test: Antiproliferative activity against human DU-145 cells assessed as cell growth inhibition at 10 uM incubated for 24 hrs by sulforhodamine B assay; type: functional; conditions: read-out: GI
# SK-MEL-5 = test: Antiproliferative activity against human SK-MEL-5 cells assessed as cell growth inhibition at 10 uM incubated for 24 hrs by sulforhodamine B assay; type: functional; conditions: read-out: GI
# HOP-92 = test: Antiproliferative activity against human HOP-92 cells assessed as cell growth inhibition at 10 uM incubated for 24 hrs by sulforhodamine B assay; type: functional; conditions: read-out: GI
# HCT-116 = test: Antiproliferative activity against human HCT-116 cells assessed as cell growth inhibition at 10 uM incubated for 24 hrs by sulforhodamine B assay; type: functional; conditions: read-out: GI
# MOLT-4 = test: Antiproliferative activity against human MOLT-4 cells assessed as cell growth inhibition at 10 uM incubated for 24 hrs by sulforhodamine B assay; type: functional; conditions: read-out: GI
# OVCAR-8 = test: Antiproliferative activity against human OVCAR-8 cells assessed as cell growth inhibition at 10 uM incubated for 24 hrs by sulforhodamine B assay; type: functional; conditions: read-out: GI
# U-251 = test: Antiproliferative activity against human U-251 cells assessed as cell growth inhibition at 10 uM incubated for 24 hrs by sulforhodamine B assay; type: functional; conditions: read-out: GI
# [6] = Antiproliferative activity against human […] cells assessed as cell growth inhibition at 10 uM incubated for 24 hrs by sulforhodamine B assay; type: functional; conditions: read-out: GI
# SR = test: Antiproliferative activity against human SR cells assessed as cell growth inhibition at 10 uM incubated for 24 hrs by sulforhodamine B assay; type: functional; conditions: read-out: GI
# SN12C = test: Antiproliferative activity against human SN12C cells assessed as cell growth inhibition at 10 uM incubated for 24 hrs by sulforhodamine B assay; type: functional; conditions: read-out: GI
# K562 = test: Antiproliferative activity against human K562 cells assessed as cell growth inhibition at 10 uM incubated for 24 hrs by sulforhodamine B assay; type: functional; conditions: read-out: GI
# T47D [7] = test: Antiproliferative activity against human T47D cells assessed as cell growth inhibition at 10 uM incubated for 24 hrs by sulforhodamine B assay; type: functional; conditions: read-out: GI
# NCI-H460 = test: Antiproliferative activity against human NCI-H460 cells assessed as cell growth inhibition at 10 uM incubated for 24 hrs by sulforhodamine B assay; type: functional; conditions: read-out: GI
# EKVX = test: Antiproliferative activity against human EKVX cells assessed as cell growth inhibition at 10 uM incubated for 24 hrs by sulforhodamine B assay; type: functional; conditions: read-out: GI
# OVCAR-4 = test: Antiproliferative activity against human OVCAR-4 cells assessed as cell growth inhibition at 10 uM incubated for 24 hrs by sulforhodamine B assay; type: functional; conditions: read-out: GI
# Hs-578T = test: Antiproliferative activity against human HS-578T cells assessed as cell growth inhibition at 10 uM incubated for 24 hrs by sulforhodamine B assay; type: functional; conditions: read-out: GI
# SF-539 = test: Antiproliferative activity against human SF-539 cells assessed as cell growth inhibition at 10 uM incubated for 24 hrs by sulforhodamine B assay; type: functional; conditions: read-out: GI
# CCRF-CEM = test: Antiproliferative activity against human CCRF-CEM cells assessed as cell growth inhibition at 10 uM incubated for 24 hrs by sulforhodamine B assay; type: functional; conditions: read-out: GI
# RPMI-8226 = test: Antiproliferative activity against human RPMI-8226 cells assessed as cell growth inhibition at 10 uM incubated for 24 hrs by sulforhodamine B assay; type: functional; conditions: read-out: GI
# KM12 = test: Antiproliferative activity against human KM12 cells assessed as cell growth inhibition at 10 uM incubated for 24 hrs by sulforhodamine B assay; type: functional; conditions: read-out: GI
# SNB-19 = test: Antiproliferative activity against human SNB-19 cells assessed as cell growth inhibition at 10 uM incubated for 24 hrs by sulforhodamine B assay; type: functional; conditions: read-out: GI
# PC-3 = test: Antiproliferative activity against human PC-3 cells assessed as cell growth inhibition at 10 uM incubated for 24 hrs by sulforhodamine B assay; type: functional; conditions: read-out: GI
# A549 = test: Antiproliferative activity against human A549 cells assessed as cell growth inhibition at 10 uM incubated for 24 hrs by sulforhodamine B assay; type: functional; conditions: read-out: GI
# SF-295 = test: Antiproliferative activity against human SF-295 cells assessed as cell growth inhibition at 10 uM incubated for 24 hrs by sulforhodamine B assay; type: functional; conditions: read-out: GI
# HCT-15 = test: Antiproliferative activity against human HCT-15 cells assessed as cell growth inhibition at 10 uM incubated for 24 hrs by sulforhodamine B assay; type: functional; conditions: read-out: GI
# A498 = test: Antiproliferative activity against human A498 cells assessed as cell growth inhibition at 10 uM incubated for 24 hrs by sulforhodamine B assay; type: functional; conditions: read-out: GI
compound,measurement,setting,value
CC(C)c1nc(SCC(=O)c2ccccc2)nc(Nc2ccc(S(N)(=O)=O)cc2)c1C#N,IC50,MDA-MB-231 [1],21 µM
same,inhibition of growth at 10 µM,NCI-H226,11.8%
same,inhibition of growth at 10 µM,NCI-H522,10.1%
same,inhibition of growth at 10 µM,MDA-MB-468,9.86%
same,inhibition of growth at 10 µM,786-0,5.2%
same,inhibition of growth at 10 µM,SK-OV-3,5.58%
same,IC50,T47D [2],46.4 µM
same,inhibition of growth at 10 µM,CAKI-1,8.76%
same,inhibition of growth at 10 µM,UO-31,36.3%
same,inhibition of growth at 10 µM,MCF7 [3],11.4%
same,Ki,Carbonic anhydrase 9,0.0966 µM
same,inhibition of growth at 10 µM,HL-60,5.93%
same,inhibition of growth at 10 µM,LOX IMVI,16.5%
same,inhibition of growth at 10 µM,UACC-62,10.2%
same,inhibition of growth at 10 µM,ACHN,7.34%
same,inhibition of growth at 10 µM,RXF 393,13.8%
same,inhibition of growth at 10 µM,NCI-H23,13.1%
same,IC50,MCF7 [4],47.6 µM
same,inhibition of growth at 10 µM,MDA-MB-231 [5],5.5%
COc1ccc(OC)c(-c2nc(SCC(=O)c3ccccc3)nc(Nc3ccc(S(N)(=O)=O)cc3)c2C#N)c1,inhibition of growth at 10 µM,MDA-MB-435,7.57%
same,IC50,MDA-MB-231 [1],> 100 µM
same,inhibition of growth at 10 µM,NCI-H226,7.28%
same,inhibition of growth at 10 µM,SNB-75,18.4%
same,inhibition of growth at 10 µM,Malme-3M,6.7%
same,inhibition of growth at 10 µM,BT-549,8.03%
same,inhibition of growth at 10 µM,NCI-H522,6.74%
same,inhibition of growth at 10 µM,MDA-MB-468,18.3%
same,inhibition of growth at 10 µM,786-0,12.6%
same,inhibition of growth at 10 µM,DU-145,8.97%
same,inhibition of growth at 10 µM,SK-MEL-5,5.91%
same,IC50,T47D [2],> 100 µM
same,inhibition of growth at 10 µM,CAKI-1,23.3%
same,inhibition of growth at 10 µM,HOP-92,52%
same,inhibition of growth at 10 µM,HCT-116,7.67%
same,inhibition of growth at 10 µM,MOLT-4,30.1%
same,inhibition of growth at 10 µM,OVCAR-8,7.32%
same,inhibition of growth at 10 µM,UO-31,29.1%
same,inhibition of growth at 10 µM,U-251,9.25%
same,inhibition of growth at 10 µM,[6],10.1%
same,inhibition of growth at 10 µM,MCF7 [3],14.7%
same,inhibition of growth at 10 µM,SR,22.7%
same,inhibition of growth at 10 µM,SN12C,14.1%
same,inhibition of growth at 10 µM,K562,14.6%
same,inhibition of growth at 10 µM,T47D [7],20.4%
same,inhibition of growth at 10 µM,NCI-H460,10.9%
same,inhibition of growth at 10 µM,EKVX,11.3%
same,inhibition of growth at 10 µM,OVCAR-4,14.9%
same,inhibition of growth at 10 µM,Hs-578T,6.75%
same,Ki,Carbonic anhydrase 9,0.0877 µM
same,inhibition of growth at 10 µM,SF-539,27.1%
same,inhibition of growth at 10 µM,HL-60,8.52%
same,inhibition of growth at 10 µM,LOX IMVI,17.7%
same,inhibition of growth at 10 µM,UACC-62,5.35%
same,inhibition of growth at 10 µM,ACHN,6.95%
same,inhibition of growth at 10 µM,CCRF-CEM,10.7%
same,inhibition of growth at 10 µM,RXF 393,25.6%
same,inhibition of growth at 10 µM,RPMI-8226,18.1%
same,IC50,MCF7 [4],> 100 µM
same,inhibition of growth at 10 µM,KM12,8.89%
same,inhibition of growth at 10 µM,MDA-MB-231 [5],23.6%
same,inhibition of growth at 10 µM,SNB-19,9.28%
same,inhibition of growth at 10 µM,PC-3,20.6%
same,inhibition of growth at 10 µM,A549,10.8%
same,inhibition of growth at 10 µM,SF-295,10.3%
same,inhibition of growth at 10 µM,HCT-15,26.3%
same,inhibition of growth at 10 µM,A498,30.7%
